These results are taken from patent US7271181B2, “Inhibitors of p38” (Vertex Pharmaceuticals Incorporated, priority 2001, dated 2007).

In one assay the target is T1, activated p38 (Homo sapiens, UniProt Q16539).
T1 construct: amplify the coding region of CSBP2 cDNA using a HeLa cell library; made in house; host or cells: Trichoplusia ni (Tn-368) High-Five insect cells, baculovirus (virus generated in Sf9)
T1 sequence (Q16539 whole entry): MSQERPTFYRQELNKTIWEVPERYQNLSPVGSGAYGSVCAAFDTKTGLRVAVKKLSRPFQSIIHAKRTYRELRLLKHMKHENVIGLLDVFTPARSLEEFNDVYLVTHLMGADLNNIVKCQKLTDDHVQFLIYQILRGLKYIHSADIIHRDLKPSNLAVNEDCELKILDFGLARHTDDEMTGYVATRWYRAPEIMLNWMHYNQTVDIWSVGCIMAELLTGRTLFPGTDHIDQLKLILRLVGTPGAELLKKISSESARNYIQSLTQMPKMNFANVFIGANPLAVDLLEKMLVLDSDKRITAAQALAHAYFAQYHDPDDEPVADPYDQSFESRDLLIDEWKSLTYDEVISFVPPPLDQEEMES
The assay can be described thus: p38 inhibition assay: inhibition of phosphorylation of EGF receptor peptide. The following applies: activated p38 5 nM, EGF receptor peptide 200 μM, ATP 100 μM, 30° C, 30 minutes. Type of assay: biochemical. How it is done: A. Inhibition of Phosphorylation of EGF Receptor Peptide
This assay was carried out in the presence of 10 mM MgCl2, 25 mM β-glycerophosphate, 10% glycerol and 100 mM HEPES buffer at pH 7.6. For a typical IC50 determination, a stock solution was prepared containing all of the above components and activated p38 (5 nM). The stock solution was aliquotted into vials. A fixed volume of DMSO or inhibitor in DMSO (final concentration of DMSO in reaction was 5%) was introduced to each vial, mixed and incubated for 15 minutes at room temperature. EGF receptor peptide, […], a phosphoryl acceptor in p38-catalyzed kinase reaction (1), was added to each vial to a final concentration of 200 μM. The kinase reaction was initiated with ATP (100 μM) and the vials were incubated at 30° C. After 30 minutes, the reactions were quenched with equal volume of 10% trifluoroacetic acid (TFA).
The phosphorylated peptide was quantified by HPLC analysis. Separation of phosphorylated peptide from the unphosphorylated peptide was achieved on a reverse phase column (Deltapak, 5 μm, C18 100D, Part no. 011795) with a binary gradient of water and acteonitrile, each containing 0.1% TFA. IC50 (concentration of inhibitor yielding 50% inhibition) was determined by plotting the percent (%) activity remaining against inhibitor concentration.
Compound `O=S(=O)(c1ccccc1)c1ccc(Nc2c(F)cccc2F)nc1` [Compound 502] came in with a half-maximal inhibitory concentration (IC50) not below 10000 nM.

`Cc1cccc(C(=O)c2ccc(N(C(=O)CC(C)C)c3c(F)cccc3F)nc2)c1` [Compound 614] registered an IC50 not above 1000 nM. Consider `O=C(c1ccc(N(C(=O)c2cccc(C(F)(F)F)c2)c2c(F)cccc2F)nc1)c1sccc1-n1cccc1` [Compound 623], for which the IC50 was not above 1000 nM.

Consider `O=C(c1ccc(Nc2c(F)cccc2F)nc1)c1sccc1-n1cccc1` [Compound 116], for which the half-inhibitory concentration (IC50) is not above 1000 nM. Still for that read-out and setting: with `COc1ccc(C(=O)c2ccc(Nc3c(F)cccc3F)nc2)cc1OC` [Compound 111] the figure was 1000 to 10000 nM; with `COC(=O)CCC(=O)N(c1ccc(C(=O)c2ccc(Cl)c(C)c2)cn1)c1c(F)cccc1F` [Compound 616], not below 10000 nM. Still for that read-out and setting: under `O=C(c1ccc(N(C(=O)c2ccc(Br)cc2)c2c(F)cccc2F)nc1)c1sccc1-n1cccc1` [Compound 620] stands not above 1000 nM; under `Cc1cccc(C(=O)c2ccc(N(C(=O)c3sc4ccccc4c3Cl)c3c(F)cccc3F)nc2)c1` [Compound 609], 1000 to 10000 nM; under `O=C(c1ccc(Nc2c(F)cccc2F)nc1)c1ccc(Cl)c(Cl)c1` [Compound 109], not below 10000 nM. As to `COCC(=O)N(c1ccc(C(=O)c2cccc(C)c2)cn1)c1c(F)cccc1F` [Compound 602], the IC50 was in the range of 1000 to 10000 nM. On the same count and under the same terms, with `Cc1cccc(C(=O)c2ccc(N(C(=O)c3ccc(F)c(C(F)(F)F)c3)c3c(F)cccc3F)nc2)c1` [Compound 610] the figure was not above 1000 nM. The compound `O=C(c1ccc(Nc2c(F)cccc2F)nc1)c1ccc2ccccc2c1` [Compound 110] registered an IC50 not above 1000 nM. Same read-out and setting: with `Cc1cccc(C(=O)c2ccc(N(C(=O)c3snnc3C)c3c(F)cccc3F)nc2)c1` [Compound 603] the figure was 1000 to 10000 nM; with `Cc1cccc(C(=O)c2ccc(N(C(=O)c3cccc(C(F)(F)F)c3)c3c(F)cccc3F)nc2)c1` [Compound 611], not above 1000 nM. The same measure, in the same setting: under `NC(=O)C(c1cc(C(F)(F)F)cc(C(F)(F)F)c1)c1ccc(SCc2ccco2)nn1` (centres unmarked) [Compound 301] stands 1000 to 10000 nM. Turning to `O=C(c1ccc(Cl)cc1)c1ccc(Nc2c(F)cccc2F)nc1` [Compound 112], the half-maximal inhibitory concentration (IC50) is not above 1000 nM.

Consider `CC(Oc1ccccc1)C(=O)N(c1ccc(C(=O)c2sccc2-n2cccc2)cn1)c1c(F)cccc1F` (centres unmarked) [Compound 624], for which the IC50 was not above 1000 nM. Regarding `Cc1cccc(C(=O)c2ccc(N(C(=O)c3ccc(Br)cc3)c3c(F)cccc3F)nc2)c1` [Compound 606], the IC50 was not below 10000 nM. Regarding `Cc1cccc(C(=O)c2ccc(Nc3c(F)cccc3F)nc2)c1` [Compound 104], the 50% inhibitory concentration (IC50) is not above 1000 nM.

For `Cc1cccc(C(=O)c2ccc(N(C(=O)c3ccccc3)c3c(F)cccc3F)nc2)c1` [Compound 601], the concentration for half-maximal inhibition (IC50) was 1000 to 10000 nM. Same read-out and setting: under `COC(=O)CCC(=O)N(c1ccc(C(=O)c2cccc(C)c2)cn1)c1c(F)cccc1F` [Compound 608] stands 1000 to 10000 nM; under `O=C(c1ccc(Nc2c(F)cccc2F)nc1)c1cc2ccccc2s1` [Compound 120], 1000 to 10000 nM; under `CCOC(=O)C(=O)N(c1ccc(C(=O)c2cccc(C)c2)cn1)c1c(F)cccc1F` [Compound 613], not above 1000 nM. The same measure, in the same setting: with `[O-][S+](c1ccccc1)c1ccc(Nc2c(F)cccc2F)nc1` (centres unmarked) [Compound 501] the figure was not below 10000 nM.

As for `CC(=O)N(c1ccc(C(=O)c2cccc(C)c2)cn1)c1c(F)cccc1F` [Compound 605], the half-inhibitory concentration (IC50) was not above 1000 nM. Consider `O=C(c1ccc(Nc2c(F)cccc2F)nc1)c1ccccc1Cl` [Compound 107], for which the IC50 is not above 1000 nM.

As for `CCOC(=O)C(=O)N(c1ccc(C(=O)c2ccc(Cl)c(C)c2)cn1)c1c(F)cccc1F` [Compound 618], the IC50 lay in the range of 1000 to 10000 nM. In turn, `Cc1cc(C(=O)c2ccc(N(C(=O)c3ccc(Br)cc3)c3c(F)cccc3F)nc2)ccc1Cl` [Compound 615] displayed an IC50 not below 10000 nM.

For `Fc1cccc(F)c1Nc1ccc(Sc2ccccc2)cn1` [Compound 503], the IC50 is not above 1000 nM. Still for that read-out and setting: under `Cc1cc(C(=O)c2ccc(Nc3c(F)cccc3F)nc2)ccc1Cl` [Compound 114] stands not above 1000 nM; under `O=C(c1ccc(Br)cc1)c1ccc(Nc2c(F)cccc2F)nc1` [Compound 106], not above 1000 nM; under `O=C(c1ccc(Nc2c(F)cccc2F)nc1)c1cc(Cl)ccc1Cl` [Compound 113], not above 1000 nM. With `OC(c1ccccc1)c1ccc(Nc2c(F)cccc2F)nc1` (centres unmarked) [Compound 201], the IC50 was not above 1000 nM.

`O=C(c1ccc(-c2ccccc2)cc1)c1ccc(Nc2c(F)cccc2F)nc1` [Compound 108] had a 50% inhibitory concentration (IC50) not above 1000 nM. Consider `COc1cc(OC)cc(C(=O)c2ccc(Nc3c(F)cccc3F)nc2)c1` [Compound 115], for which the IC50 is not above 1000 nM.

As to `N#Cc1ccc(C(=O)c2ccc(Nc3c(F)cccc3F)nc2)cc1` [Compound 103], the IC50 lay in the range of 1000 to 10000 nM. In turn, `O=C(c1ccc(N(C(=O)c2sc3ccccc3c2Cl)c2c(F)cccc2F)nc1)c1sccc1-n1cccc1` [Compound 622] came in with an IC50 not above 1000 nM. Same read-out and setting: under `Cc1occc1C(=O)c1ccc(Nc2c(F)cccc2F)nc1` [Compound 117] stands not above 1000 nM.

For the compound `Cc1cc(C(=O)c2ccc(N(C(=O)C(C)Oc3ccccc3)c3c(F)cccc3F)nc2)ccc1Cl` (centres unmarked) [Compound 617], the IC50 was 1000 to 10000 nM. The compound `CCCCc1ccc(Nc2c(F)cccc2F)nc1` [Compound 401] registered an IC50 not below 10000 nM. Turning to `CC(C)(C)c1ccc(C(=O)c2ccc(Nc3c(F)cccc3F)nc2)cc1` [Compound 105], the IC50 was not above 1000 nM. On the same count and under the same terms, with `Cc1cccc(C(=O)c2ccc(N(C(=O)C(C)Oc3ccccc3)c3c(F)cccc3F)nc2)c1` (centres unmarked) [Compound 612] the figure was not below 10000 nM; with `Cc1cccc(C(=O)c2ccc(N(C(=O)C3CCCCC3)c3c(F)cccc3F)nc2)c1` [Compound 607], not above 1000 nM.

Consider `O=C(c1ccccc1)c1ccc(Nc2c(F)cccc2F)nc1` [Compound 101, (6-(2,6-Difluorophenylamino)-pyridin-3-yl]-phenylmethanone], for which the IC50 is not above 1000 nM. Same read-out and setting: with `CC(C)CC(=O)c1ccc(Nc2c(F)cccc2F)nc1` [Compound 119] the figure was not above 1000 nM; with `CCOC(=O)C(=O)N(c1ccc(C(=O)c2cc(OC)cc(OC)c2)cn1)c1c(F)cccc1F` [Compound 619], not above 1000 nM. Still for that read-out and setting: under `O=C(c1ccc(Nc2c(F)cccc2F)nc1)c1cccc(Cl)c1` [Compound 102] stands not above 1000 nM. On the same count and under the same terms, with `COc1cc(C(=O)c2ccc(Nc3c(F)cccc3F)nc2)cc(OC)c1OC` [Compound 118] the figure was 1000 to 10000 nM; with `COC(=O)CCC(=O)N(c1ccc(C(=O)c2sccc2-n2cccc2)cn1)c1c(F)cccc1F` [Compound 621], 1000 to 10000 nM. Consider `Cc1cccc(C(=O)c2ccc(N(C(=O)C(C)(C)C)c3c(F)cccc3F)nc2)c1` [Compound 604], for which the half-maximal inhibitory concentration (IC50) was not above 1000 nM. Same read-out and setting: under `NC(=O)N(c1ccc(C#CCOc2c(Cl)cccc2Cl)cn1)c1c(F)cccc1F` [Compound 402] stands not below 10000 nM.

The target in another assay is T1, activated p38. The assay can be described thus: p38 inhibition assay: inhibition of ATPase activity. Conditions: ATPase activity of activated p38 (60 nM), various ATP concentrations. The format is biochemical. How it is done: B. Inhibition of ATPase Activity
This assay is carried out in the presence of 10 mM MgCl2, 25 mM β-glycerophosphate, 10% glycerol and 100 mM HEPES buffer at pH 7.6. For a typical Ki determination, the Km for ATP in the ATPase activity of activated p38 reaction is determined in the absence of inhibitor and in the presence of two concentrations of inhibitor. A stock solution is prepared containing all of the above components and activated p38 (60 nM). The stock solution is aliquotted into vials. A fixed volume of DMSO or inhibitor in DMSO (final concentration of DMSO in reaction was 2.5%) is introduced to each vial, mixed and incubated for 15 minutes at room temperature. The reaction is initiated by adding various concentrations of ATP and then incubated at 30° C. After 30 minutes, the reactions are quenched with 50 μl of EDTA (0.1 M, final concentration), pH 8.0. The product of p38 ATPase activity, ADP, is quantified by HPLC analysis.
Separation of ADP from ATP is achieved on a reversed phase column (Supelcosil, LC-18, 3 μm, part no. 5-8985) using a binary solvent gradient of following composition: Solvent A—0.1 M phosphate buffer containing 8 mM tetrabutylammonium hydrogen sulfate (Sigma Chemical Co., catalogue no. T-7158), Solvent B—Solvent A with 30% methanol.
Ki is determined from the rate data as a function of inhibitor and ATP concentrations.
For the compound `O=C(c1ccc(N(C(=O)CCc2ccccc2)c2c(F)cccc2F)nc1)c1sccc1-n1cccc1` [Compound 633], the Ki lay within 1000 to 10000 nM. The compound `O=C(c1ccc(N(C(=O)OCc2ccccc2)c2c(F)cccc2F)nc1)c1ccccc1Cl` [Compound 631] showed a Ki of 1000 to 10000 nM.

In turn, `O=C(c1ccc(N(C(=O)OCc2ccccc2)c2c(F)cccc2F)nc1)c1sccc1-n1cccc1` [Compound 635] gave a Ki of 1000 to 10000 nM. `O=C(c1ccccc1)c1ccc(N(C(=O)Oc2ccc(F)cc2)c2c(F)cccc2F)nc1` [Compound 628]: the inhibitory constant (Ki) was 1000 to 10000 nM.

Regarding `O=C(c1ccc(N(C(=O)Oc2ccc(F)cc2)c2c(F)cccc2F)nc1)c1ccccc1Cl` [Compound 632], the inhibitory constant (Ki) is 1000 to 10000 nM. On the same count and under the same terms, with `O=C(c1ccccc1)c1ccc(N(C(=O)CCc2ccccc2)c2c(F)cccc2F)nc1` [Compound 625] the figure was 1000 to 10000 nM; with `O=C(c1ccccc1)c1ccc(N(C(=O)Cc2ccc(F)cc2)c2c(F)cccc2F)nc1` [Compound 626], 1000 to 10000 nM.

The compound `O=C(c1ccc(N(C(=O)CCc2ccccc2)c2c(F)cccc2F)nc1)c1ccccc1Cl` [Compound 629] had a Ki of 1000 to 10000 nM.
